Source: patent publication US4895835A, “Muramyl peptide derivatives and use thereof” (priority 1987, dated 1990)

How the values were obtained:
[1] = Stimulation effect on antibody producing cells (plaque numbers, Cunningham technique); type: in vivo, ICR mouse; conditions: for Plaque No.: ICR mouse, SRBC i.v. and compound 500 μg/ml, 0.2 ml i.v., splenic cells after 4 days; for Stimulation index: plaque number relative to control (saline) = 1
Method: (5) Stimulation effect on anti-body precluding cells
A solution of sheep […] (SRBC) in phosphate buffered physiological saline (5×10^7 cells/ml), 0.2 ml was injected into tail intravenous vein of ICR mouse (7 mice per group). At the same time, a solution of a compound of the invention in physiological saline (500 μg/ml), 0.2 ml was similarly injected. After 4 days, lien was picked up from the treated mouse to obtain splenic cells. Plaque numbers were measured by Cunningham technique.

E. coli (JC-2) = experiment: Phylactic effect, E. coli infection; type: in vivo; conditions: ICR mouse; compound 500 μg/ml, 0.2 ml i.p. one day before infection i.p. 1×10^7 /mouse; after 7 days of infection
Method: (§1) A solution of a compound of the invention in physiological saline (500 μg/ml), 0.2 ml was intraperitoneally injected into ICR mouse (20 mice per group). After a day, E. coli (JC-2) and Psud. aeruginosa (NCTC 10490) were incubated through intraperitoneal route so as to be at concentration of 1×10^7 /mouse. Survival rate after 7 days of infection was measured.

[2] = test system: influenza HA vaccine (A/Bangkok/10/83 strain, H1N1); experiment: Enhancing effect on influenza HA vaccine (adjuvant activity), ELISA; type: in vivo; conditions: CDF1 mouse, compound (100 μg/ml) mixed with influenza HA vaccine (100 CCA/ml)
Method: (3) Enhancing effect on influenza HA vaccine (adjuvant activity)
A compound of the invention was dissolved or suspended in physiological saline (100 μg/ml). Separately, influenza HA vaccine (A/Bangkok/10/83 strain, H1N1) was dissolved in physiological saline (100 CCA/ml). These two solutions were mixed in an equivalent weight to make the test solution. Control is a solution excluded the compound of the invention from the test solution.
The test solution was administered into CDF1 mouse in a similar way to that of the test of enhancing action for hepatitis vaccine as mentioned above, to obtain primary and secondary response sera.

[3] = test system: leukemia cells of L-1210 mouse; experiment: Activation for macrophages: cytostatic rate of intraperitoneal macrophages on leukemia cells; type: in vivo; conditions: CDF1 mouse i.p. 500 μg/ml, 0.2 ml; macrophages collected after 4 days; macrophages:L-1210 cells 20:1; 72 hours
Method: (4) Activation for macrophages
A test solution of a compound of the invention in physicological saline (500 μg/ml, 0.2 ml) was intraperioneally injected into CDF1 mouse (one group consisting of mice). Intraperioneal macrophages which were collected after 4 days and leukemia cells of L-1210 mouse were mixed at the cell ratio of 20 and 1. Each 200 μl of the mixture was put on a microplate having 96 holes. After 72 hours, numbers of cells in each holes were counted, and cytostatic rate of the mixture was measured.

Meth A fibrosarcomas = experiment: Antitumour effect, Meth A fibrosarcoma; type: in vivo; conditions: BALB/C mouse; s.c. 0.2 ml mixture of Meth A cells (1×10^6 cells/ml) and compound (1,000 μg/ml); after 35 days
Method: Meth A fibrosarcomas were suspended in phosphate buffered physiological saline (1×10^6 cells/ml). Separately, a solution of a compound of the invention in physiological saline was prepared (1,000 μg/ml). An equivalent weight mixture of these two solution (0.2 ml) was subcutaneously injected into BALB/C mouse (20 mice per group). Survival rate after 35 days was measured.

[4] = test system: B type hepatitis vaccine (HBs); experiment: Enhancing effect on hepatitis vaccine (adjuvant activity), IgG antibody by ELISA; type: in vivo; conditions: CDF1 mouse; for Anti HBs-ELISA unit, Primary response serum: i.p. 0.2 ml compound (100 μg/ml) mixed with HBs vaccine, serum at 3 weeks; for Anti HBs-ELISA unit, Secondary response serum: second i.p. injection of 0.2 ml test solution, serum at 2 weeks
Method: (2) Enhancing effect on hepatitis vaccine (adjuvant activity)
A compound of the invention was dissolved or suspended in physiological saline (100 μg/ml), and mixed with a solution of B type hepatitis vaccine (HBs) in physiological saline (100 μg/m) at an equivalent weight ratio to obtain the test solution. A solution excluded the compound of the invention from the test solution was used as control.
The test solution (0.2 ml) was intraperitoneally injected into CDF1 mouse (one group consisting of 10 mice). At 3 weeks after the administration, a blood was taken from the intravenous vein in eyeground of each the mice and centrifuged to obtain serum (primary response serum). Further, 0.2 ml of the test solution was again intraperitoneally injected into each mice, and at 2 weeks stage, serum was separated in the similar way (secondary response serum).
Value for IgG antibody against B type hepatitis virus of the resulting serum was measured by ELISA method.

BCG killed vaccine = experiment: Enhancing action on BCG vaccine (adjuvant activity), 24 hours foot-pad test; type: in vivo; conditions: ICR mouse; s.c. 0.2 ml mixture of BCG killed vaccine (100 μg/ml) and compound in Freund's incomplete adjuvant (1000 μg/ml); tuberculin 10 μg after 14 days; measured after 24 hours
Method: (1) Enhancing action on BCG vaccine (adjuvant activity)
0.2 ml of an equivalent weight mixture of a solution of BCG killed vaccine in physiological saline (100 μg/ml) and a solution of a compound of the invention in Freund's incomplete adjuvant (1000 μg/ml) was subcutaneously injected to the back of ICR mouse (one group consisting of 7 mice). After 14 days, 10 μg of tuberculin was intradermally injected into the hind foot-pad. Swelling of the foot-pad was measured after 24 hours (24 hours foot-pad test).
The control is the above mentioned mixture excluded a compound of the invention.

[5] = test system: Psud. aeruginosa (NCTC 10490); experiment: Phylactic effect, Psud. aeruginosa infection; type: in vivo; conditions: ICR mouse; compound 500 μg/ml, 0.2 ml i.p. one day before infection i.p. 1×10^7 /mouse; after 7 days of infection
Method: as §1

| SMILES | Plaque No. [1] | Stimulation index [1] | Survival rate, E. coli (E. coli (JC-2)) | Anti-influenza HA virus ELISA unit, Primary response serum [2] | Anti-influenza HA virus ELISA unit, Secondary response serum [2] | Cytostatic rate [3] | Survival rate (Meth A fibrosarcomas) | Anti HBs-ELISA unit, Primary response serum [4] | Anti HBs-ELISA unit, Secondary response serum [4] | Swelling of Foot-pad (BCG killed vaccine) | Survival rate, Psud. aeruginosa [5] |
| --- | --- | --- | --- | --- | --- | --- | --- | --- | --- | --- | --- |
| CCCCCCCCCCCCCC(=O)O[C@H](CCCCCCCCCCC)CC(=O)OC[C@H]1OC[C@H](NC(C)=O)[C@@H](O[C@H](C)C(=O)N[C@@H](C)C(=O)N[C@H](CCC(=O)OC)C(N)=O)[C@@H]1O [Example 5, N-[[2-O-{2-Acetamido-1,5-anhydro-2,3-dideoxy-6-O-[(3R)-3-tetradodecanoyloxytetradecanoyl]-D-glucitol-3-yl}-D-lactoyl]]-L-alanyl-D-isoglutamine methyl ester] | 5.83 ± 3.2 × 10^3 | 1.2 | 70% | 1,800 ELISA unit | 28,000 ELISA unit | 58.6 ± 2.9% | 35% | 3,600 ELISA unit | 120,000 ELISA unit | 69.3 ± 18.8 × 0.01 mm | 55% |
| CCCCCCCCCCCCCCCC(=O)O[C@H](CCCCCCCCCCC)CC(=O)OC[C@H]1O[C@@H](S)[C@H](NC(C)=O)[C@@H](O[C@H](C)C(=O)N[C@@H](C)C(=O)N[C@H](CCC(=O)OC)C(N)=O)[C@@H]1O [Example 9, N-[[2-O-{2-Acetamido-2,3-dideoxy-6-O-[(3R)-3-hexadodecanoyloxytetradecanoyl]-1-thio-β-D-glucopyranos-3-yl}-D-lactoyl]]-L-alanyl-D-isoglutamine methyl ester] | 11.00 ± 10.1 × 10^3 | 2.3 | 40% | 1,900 ELISA unit | 25,000 ELISA unit | 38.2 ± 2.2% | 5% | 3,400 ELISA unit | 150,000 ELISA unit | 49.1 ± 12.0 × 0.01 mm | 15% |
| CCCCCCCCCCCCCC(=O)O[C@H](CCCCCCCCCCC)CC(=O)OC[C@H]1OC(O)[C@H](NC(C)=O)[C@@H](O[C@H](C)C(=O)N[C@@H](C)C(=O)N[C@H](CCC(=O)OC)C(N)=O)[C@@H]1O (stereo partly drawn) [Example 2, N-[[2-O-{2-Acetamido-2,3-dideoxy-6-O-[(3R)-3-tetradecanoyloxytetradecanoyl]-D-glucopyranos-3-yl}-D-lactoyl]]-L-alanyl-D-isoglutamine methyl ester] | 8.23 ± 7.2 × 10^3 | 1.7 | 55% | 3,100 ELISA unit | 33,000 ELISA unit | 45.2 ± 1.1% | 30% | 6,000 ELISA unit | 195,000 ELISA unit | 57.4 ± 16.3 × 0.01 mm | 45% |
| CCCCCCCCCCCCCCCC(=O)O[C@H](CCCCCCCCCCC)CC(=O)OC[C@H]1OC(O)[C@H](NC(C)=O)[C@@H](O[C@H](C)C(=O)N[C@@H](C)C(=O)N[C@H](CCC(=O)OC)C(N)=O)[C@@H]1O (stereo partly drawn) [Example 3, N-[[2-O-{2-Acetamido-2,3-dideoxy-6-O-[(3R)-3-hexadecanoyloytetradecanoyl]-D-glucopyranos-3-yl}-D-lactoyl]]-L-alanyl-D-isoglutamine methyl ester] | 21.23 ± 9.9 × 10^3 | 4.4 | 45% | 5,200 ELISA unit | 57,000 ELISA unit | 22.3 ± 1.0% | 20% | 24,000 ELISA unit | 575,000 ELISA unit | 66.2 ± 12.3 × 0.01 mm | 40% |
| CCCCCCCCCCCC(=O)O[C@H](CCCCCCCCCCC)CC(=O)OC[C@H]1OC(O)[C@H](NC(C)=O)[C@@H](O[C@H](C)C(=O)N[C@@H](C)C(=O)N[C@H](CCC(=O)OC)C(N)=O)[C@@H]1O (stereo partly drawn) [Example 1, N-[[2-O-{2-Acetamido-2,3-dideoxy-6-O-[(3R)-3-dodecanoyloxytetradecanoyl]-D-glucopyranos-3-yl}-D-lactoyl]]-L-alanyl-D-isoglutamine methyl ester] | 10.56 ± 8.3 × 10^3 | 2.2 | 50% | 4,800 ELISA unit | 34,000 ELISA unit | 40.0 ± 1.2% | 30% | 10,800 ELISA unit | 150,000 ELISA unit | 59.2 ± 15.1 × 0.01 mm | 45% |
| CCCCCCCCCCCCCC(=O)O[C@H](CCCCCCCCCCC)CC(=O)OC[C@H]1O[C@@H](S)[C@H](NC(C)=O)[C@@H](O[C@H](C)C(=O)N[C@@H](C)C(=O)N[C@H](CCC(=O)OC)C(N)=O)[C@@H]1O [Example 8, N-[[2-O-{2-Acetamido-2,3-dideoxy-6-O-[(3R)-3-tetradecanoyloxytetradecanoyl]-1-thio-β-D-glucopyranos-3-yl}-D-lactoyl]]-L-alanyl-D-isoglutamine methyl ester] | 8.63 ± 7.9 × 10^3 | 1.8 | 35% | 2,100 ELISA unit | 22,000 ELISA unit | 31.6 ± 1.6% | 5% | 2,200 ELISA unit | 105,000 ELISA unit | 51.8 ± 11.0 × 0.01 mm | 20% |
| CCCCCCCCCCCC(=O)O[C@H](CCCCCCCCCCC)CC(=O)OC[C@H]1OC[C@H](NC(C)=O)[C@@H](O[C@H](C)C(=O)N[C@@H](C)C(=O)N[C@H](CCC(=O)OC)C(N)=O)[C@@H]1O [Example 4] | 6.67 ± 3.6 × 10^3 | 1.4 | 65% | 2,300 ELISA unit | 32,000 ELISA unit | 55.2 ± 2.8% | 35% | 5,200 ELISA unit | 175,000 ELISA unit | 78.6 ± 19.1 × 0.01 mm | 50% |
